Laboratory results from patent US20250026765A1, “SPIROHETEROCYCLE DERIVATIVE HAVING SEROTONIN RECEPTOR BINDING ACTIVITY” (Shionogi & Co., Ltd., priority 2021, published 2025).
Where two headings read alike, the source gives them in different places.

Columns and labels:
[1] = target: human recombinant 5-HT2C receptor (Homo sapiens (Human), UniProt P28335); experiment: 5-HT2C receptor binding inhibition test ([3H]-Mesulergine); details: Jump-In HEK cell membrane, 37° C. 2 hours
Procedure: Test Example 2: 5-HT2C Receptor Binding Inhibition Test
(§1) (Each Experimental Condition)
Cell membrane: 0.5 μg of Jump-In HEK cell membrane (expressing human recombinant 5-HT2C receptor) per well
(§2) Assay buffer: Tris-HCl 50 mmol/L (pH 7.4) containing NaCl 120 mmol/L, MgCl2·6H2O 1 mmol/L, KCl 5 mmol/L, 0.1% BSA and CaCl2 2 mmol/L
Radioactive ligand: [^3H]-Mesulergine with a final concentration of around Kd value calculated by the following method
Non-specific ligand: Serotonin HCl with a final concentration of […]
(§3) The Kd value is calculated when the lot of cell membrane is changed. In advance, 0.5 μL of a 1 mmol/L compound for non-specific binding calculation dissolved in DMSO or DMSO is dispensed into a microplate, and the cell membrane is diluted with an Assay buffer. The radioactive ligand solution is serially diluted and the count is confirmed with a liquid scintillator. Assay buffer containing diluted cell membrane is dispensed into a microplate at 50 μL/well. Then, the radioactive ligand solution is dispensed into a microplate at 50 μL/well, and the plate is sealed. It is allowed to stand at 37° C. for 2 hours. During this period, 50 mmol/L Tris-HCl (pH 7.4) is dispensed into a GF/B UniFilter plate at 50 μL/well and allowed to stand at 4° C. for 1 hour or longer. After that, filtration is performed with Cell harvester (PerkinElmer). The radioactive ligand solution is dispensed into an empty well of the GF/B UniFilter plate at 10 μL/well. After the GF/B UniFilter plate is dried at room temperature, MicroScinti 20 is dispensed into the GF/B UniFilter plate at 50 μL/well to seal the plate. The GF/B UniFilter plate is allowed to stand overnight at room temperature. The radioactivity of [^3H]-Mesulergine bound to the 5-HT2C receptor is measured using Microbeta2 (PerkinElmer) at a measurement time of 1 min/well. The Saturation curve is drawn from the measured value, and the Kd value is calculated from the slope of the Scatchard Plot.
(§4) (Binding Test of the Compound According to the Present Invention)
In advance, 0.5 μL of the compound solution dissolved in DMSO is dispensed into a microplate, and the cell membrane and the hot ligand are diluted with Assay buffer, respectively. Then, the Assay buffer containing the diluted cell membrane is dispensed into a microplate at 50 μL/well. Then, the radioactive ligand solution is dispensed into a microplate at 50 μL/well, and the plate is sealed. Then, it is allowed to stand at 37° C. for 2 hours. During this period, 50 mmol/L Tris-HCl (pH 7.4) is dispensed into a GF/B UniFilter plate at 50 μL/well and allowed to stand at 4° C. for 1 hour or longer. After that, filtration is performed with Cell harvester (PerkinElmer). After the GF/B UniFilter plate is dried at room temperature, MicroScinti 20 is dispensed into the GF/B UniFilter plate at 50 μL/well, and the plate is sealed. The GF/B UniFilter plate is allowed to stand overnight at room temperature. The radioactivity of [^3H]-Mesulergine bound to the 5-HT2C receptor is measured using Microbeta2 (PerkinElmer) at a measurement time of 1 min/well. The non-specific binding is calculated from the radioactivity of […] in the presence of 500 μmol/L Serotonin HCl which is the unlabeled ligand, and the total binding is calculated from the radioactivity of [^3H]-Mesulergine in the absence of the compound according to the present invention (Vehicle). Finally, the Ki value is calculated from the dose-response curve.
(§5) (The binding activity of the compound according to the present invention is calculated from the following binding inhibition rate (%).)
(§6) [formula] • a; mean cpm of non-specific binding • b; average cpm of total binding • c; cpm in the presence of the test compound

[2] = target: human recombinant 5-HT2A receptor (Homo sapiens (Human), UniProt P28223); experiment: 5-HT2A receptor binding inhibition test ([3H]-Ketanserin); details: Jump-In HEK cell membrane, 25° C. 1.5 hours
Sequence of human recombinant 5-HT2A receptor (P28223 whole entry): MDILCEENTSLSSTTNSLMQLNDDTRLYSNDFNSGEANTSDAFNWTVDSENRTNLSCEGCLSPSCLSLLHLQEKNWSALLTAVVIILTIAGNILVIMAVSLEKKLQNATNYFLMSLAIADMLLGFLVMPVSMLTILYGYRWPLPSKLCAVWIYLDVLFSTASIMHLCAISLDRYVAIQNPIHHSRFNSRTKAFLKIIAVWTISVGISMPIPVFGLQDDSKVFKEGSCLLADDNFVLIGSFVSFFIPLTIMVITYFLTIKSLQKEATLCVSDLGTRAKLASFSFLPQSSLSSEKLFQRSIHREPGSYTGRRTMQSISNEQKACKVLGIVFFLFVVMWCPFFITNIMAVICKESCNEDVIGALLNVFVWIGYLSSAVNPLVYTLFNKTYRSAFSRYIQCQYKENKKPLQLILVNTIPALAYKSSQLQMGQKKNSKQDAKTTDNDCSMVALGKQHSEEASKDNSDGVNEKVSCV
Procedure: Test Example 1: 5-HT2A Receptor Binding Inhibition Test
as §1
Cell membrane: 15 μg of Jump-In HEK cell membrane (expressing human recombinant 5-HT2A receptor) per well
as §2
Radioactive ligand: [^3H]-Ketanserin with a final concentration of around Kd value calculated by the following method
Non-specific ligand: Serotonin HCl with a final concentration of 500 μmol/L
as §3, with “at room temperature (25° C.)” for “at 37° C.”, “for 1.5” for “for 2”, “of [^3H]-Ketanserin” for “of [^3H]-Mesulergine”, “the 5-HT2A” for “the 5-HT2C”
as §4
In advance, 0.5 μL of the compound solution dissolved in DMSO is dispensed into a microplate, and the cell membrane and the hot ligand are diluted with Assay buffer, respectively. Then, the Assay buffer containing the diluted cell membrane is dispensed into a microplate at 50 μL/well. Then, the radioactive ligand solution is dispensed into a microplate at 50 μL/well, and the plate is sealed. Then, it is allowed to stand at room temperature (25° C.) for 1.5 hours. During this period, 50 mmol/L Tris-HCl (pH 7.4) is dispensed into a GF/B UniFilter plate at 50 μL/well and allowed to stand at 4° C. for 1 hour or longer. After that, filtration is performed with Cell harvester (PerkinElmer). After the GF/B UniFilter plate is dried at room temperature, MicroScinti 20 is dispensed into the GF/B UniFilter plate at 50 μL/well to seal the plate. The GF/B UniFilter plate is allowed to stand overnight at room temperature. The radioactivity of [^3H]-Ketanserin bound to the 5-HT2A receptor is measured using Microbeta2 (PerkinElmer) at a measurement time of 1 min/well. The non-specific binding is calculated from the radioactivity of [^3H]-Ketanserin in the presence of 500 μmol/L Serotonin HCl which is the unlabeled ligand, and the total binding is calculated from the radioactivity of [^3H]-Ketanserin in the absence of the compound according to the present invention (Vehicle). Finally, the Ki value is calculated from the dose-response curve.
as §5, §6

[3] = read-out: human serotonin 5-HT2C receptor binding activity Ki
[4] = read-out: human serotonin 5-HT2A receptor binding activity Ki

Sequence of human recombinant 5-HT2C receptor (P28335 33-458): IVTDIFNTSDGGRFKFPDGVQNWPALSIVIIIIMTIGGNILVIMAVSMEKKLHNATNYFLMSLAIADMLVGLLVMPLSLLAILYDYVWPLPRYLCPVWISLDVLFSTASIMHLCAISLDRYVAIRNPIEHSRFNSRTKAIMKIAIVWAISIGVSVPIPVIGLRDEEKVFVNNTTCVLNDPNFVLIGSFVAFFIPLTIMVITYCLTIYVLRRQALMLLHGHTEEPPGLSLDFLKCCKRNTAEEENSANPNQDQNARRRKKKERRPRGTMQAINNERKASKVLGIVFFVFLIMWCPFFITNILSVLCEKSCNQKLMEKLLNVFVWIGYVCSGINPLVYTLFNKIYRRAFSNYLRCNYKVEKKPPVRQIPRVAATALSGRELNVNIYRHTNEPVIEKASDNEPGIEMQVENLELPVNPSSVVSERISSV

Row | Structure (SMILES) | Ki ([1]; read-out: h-5-HT2C Ki) | Ki ([2]; read-out: h-5-HT2A Ki) | Ki [1, 3] | Ki [2, 4]
1 | Cc1nc(CN(Cc2nc3ccccc3o2)C2=NOC3(CCN(C)CC3)N2)co1 [Compound I-094] | 10 to 100 nM | 10 to 100 nM | – | –
2 | Cc1ccc(CN(Cc2ccc(OCC(C)C)cc2)C2=NC(=O)C3(CCN(C)CC3)N2)nc1 [Compound I-062] | 10 to 100 nM | < 10 nM | – | –
3 | CCCOc1ccc(CC2=NOC3(CCN(C)CC34CC4)N2Cc2cc(C)n(C)n2)cc1 (racemic) [Compound I-029] | < 10 nM | < 10 nM | – | –
4 | Cc1ncc(CN(Cc2ccc(OCC(C)C)cc2)C2=NOC3(CCN(C)CC3)N2)o1 [Compound I-053] | < 10 nM | < 10 nM | – | –
5 | Cc1cc(CN(Cc2ccc(OCC(C)C)cc2)C2=NC(=O)C3(CCN(C)CC3)N2)nn1C [Compound I-058] | 100 to 500 nM | 10 to 100 nM | – | –
6 | Cc1nc(CN(Cc2ccc(OCC(C)C)cc2)C2=NO[C@@]3(CCNC[C@H]3F)N2)co1 (racemic) [Compound I-085] | < 10 nM | < 10 nM | – | –
7 | Cc1nc(CN(Cc2csc3ccccc23)C2=NOC3(CCN(C)CC3)N2)co1 [Compound I-122] | < 10 nM | < 10 nM | – | –
8 | CC(C)COc1ccc(CN(Cc2coc(C(F)F)n2)C2=NOC3(CCN(C)CC3)N2)cc1 [Compound I-050] | < 10 nM | < 10 nM | – | –
9 | CC(C)COc1ccc(CN(Cc2cnn(C)n2)C2=NOC3(CCN(C)CC3)N2)cc1F [Compound I-107] | < 10 nM | < 10 nM | – | –
10 | Cc1ccc(CN(Cc2ccc(OCC(C)C)cc2)C2=NOC3(CCN(C)CC3)N2)cn1 [Compound I-081] | 100 to 500 nM | < 10 nM | – | –
11 | CCCCOc1ccc(CN(Cc2coc(C)n2)C2=NOC3(CCNCC3)N2)cc1 [Compound I-134] | < 10 nM | < 10 nM | – | –
12 | CCCOc1ccc(CC2=NOC3(CCN(C)CC34CC4)N2Cc2ccn(C)n2)cc1 (single isomer, unassigned) [Compound I-044] | < 10 nM | < 10 nM | – | –
13 | Cc1ccc(CN(Cc2ccc(OCC(C)C)cc2)C2=NOC3(CCN(C)CC3)N2)nc1 [Compound I-016] | < 10 nM | < 10 nM | – | –
14 | CC(C)COc1ccc(CN(Cc2ccco2)C2=NC(=O)C3(CCN(C)CC3)N2)cc1 [Compound I-063] | 10 to 100 nM | < 10 nM | – | –
15 | Cc1nc(CN(Cc2ccc(OCC3CC(F)(F)C3)cc2)C2=NOC3(CCN(C)CC3)N2)co1 [Compound I-084] | < 10 nM | < 10 nM | – | –
16 | Cc1nc(CN(Cc2ccc(OCC3CCC3)cc2)C2=NOC3(CCN(C)CC3)N2)co1 [Compound I-083] | < 10 nM | < 10 nM | – | –
17 | CC(C)CNc1ccc(CN(Cc2ccn(C)n2)C2=NOC3(CCN(C)CC3)N2)cc1 [Compound I-023] | 10 to 100 nM | 10 to 100 nM | – | –

Row | Structure (SMILES) | Ki ([1]; read-out: h-5-HT2C Ki) | Ki ([2]; read-out: h-5-HT2A Ki) | Ki [1, 3] | Ki [2, 4]
18 | CC(C)COc1ccc(CC2=NOC3(CCNCC3)N2Cc2ccc(F)cc2O)cc1 [Compound I-003] | – | – | 4.11 nM | 19.8 nM
19 | Cc1cc(CN2C(Cc3ccc(OC(F)F)cc3)=NOC23CCN(C)CC32CC2)nn1C (racemic) [Compound I-035] | < 10 nM | < 10 nM | – | –
20 | CC(C)COc1ccc(CN(Cc2ccn(C3CC3)n2)C2=NOC3(CCN(C)CC3)N2)cc1 [Compound I-100] | 10 to 100 nM | < 10 nM | – | –
21 | CC(C)COc1ccc(CN(Cc2ccc(F)cn2)C2=NC(=O)C3(CCN(C)CC3)N2)cc1 [Compound I-030] | 10 to 100 nM | < 10 nM | – | –
22 | CC(C)COc1ccc(CN(Cc2coc(C3CC3)n2)C2=NOC3(CCN(C)CC3)N2)cc1 [Compound I-049] | – | – | 0.524 nM | 0.961 nM
23 | CC(C)COc1ccc(CN(Cc2ccc(F)cc2)C2=NC(=O)C3(CCNCC3)N2)cc1 [Compound I-022] | < 10 nM | < 10 nM | – | –
24 | Cc1nc(CN(Cc2cnc3ccccc3c2)C2=NOC3(CCN(C)CC3)N2)co1 [Compound I-095] | 100 to 500 nM | 10 to 100 nM | – | –
25 | Cc1nc(CN(Cc2ccc3ccccc3c2)C2=NOC3(CCN(C)CC3)N2)co1 [Compound I-097] | < 10 nM | < 10 nM | – | –
26 | CC(C)COc1ccc(CN(Cc2ccn(C)n2)C2=NOC3(CCN(C)CC3)N2)cc1 [Compound I-009] | < 10 nM | < 10 nM | – | –
27 | COc1ccc(CN(Cc2coc(C)n2)C2=NOC3(CCN(C)CC3)N2)nc1 [Compound I-121] | 10 to 100 nM | 10 to 100 nM | – | –
28 | Cc1nc(CN(Cc2ccc(OCC(C)C)cc2F)C2=NOC3(CCNCC3)N2)co1 [Compound I-131] | < 10 nM | < 10 nM | – | –
29 | CC(C)COc1ccc(C[C@H]2C(=O)NC3(CCN(C)CC3)N2Cc2ccc(F)cc2)cc1 [Compound I-002] | – | – | 27.1 nM | 11.1 nM
30 | CCCc1ccc(CN(Cc2coc(C)n2)C2=NOC3(CCN(C)CC3)N2)c(F)c1 [Compound I-109] | < 10 nM | < 10 nM | – | –
31 | CN1CCC2(CC1)NC(N(Cc1ccc(OCC(F)(F)C(F)F)cc1)Cc1ccn(C)n1)=NO2 [Compound I-010] | < 10 nM | < 10 nM | – | –
32 | COc1ccc(CN(Cc2coc(C)n2)C2=NOC3(CCN(C)CC3)N2)cn1 [Compound I-120] | 10 to 100 nM | 10 to 100 nM | – | –
33 | Cc1nc(CN(Cc2ccc(OCC(C)C)cc2)C2=NC(=O)C3(CCN(C)CC3)N2)cs1 [Compound I-057] | – | – | 2.19 nM | 5.2 nM
